According to paper PMC10166914, “GTN057, a komaroviquinone derivative, induced myeloma cells' death in vivo and inhibited c‐MET tyrosine kinase” (Cancer Medicine, 2023):

Tests used:
[1] = system: MUM24 cells; test: Combination treatment with bortezomib or lenalidomide, MTT assay; assay type: cell-based, human; conditions: GTN057 with bortezomib or lenalidomide
Description: FIGURE 1 GTN057 induced the cell death of MM cells in vitro. (A) The chemical structure of GTN057 and the putative degradation product, GTN054. (B) GTN057 induced the cell death of the MM cell lines. The cells were incubated with GTN057 for 48 h, and the number of viable cells was counted by trypan blue exclusion test. Bars: mean ± SD (n = 3). *p < 0.05 versus control. (C) Growth‐inhibitory effects of GTN057 on CD138‐positive cells obtained from MM patients' bone marrow. Cells were treated with GTN057. The viability was evaluated by an MTT assay. Bars: mean ± SD (n = 3). *p < 0.05 versus control. (D) Combination treatment of GTN057 with bortezomib (Btz) or lenalidomide (Len), two major standard myeloma drugs, in MUM24 cells. The viability was evaluated by an MTT assay. Bars: mean ± SD (n = 3). *p < 0.05 versus GTN057 alone. […]
For the 3‐[…] (MTT) assay (Roche Diagnostics), 6 × 10^4 cells/mL of CD138‐positive bone marrow cells were cultured in 96‐well plates in triplicate with various concentrations of GTN057 for 48 h. The cell viability was examined by MTT dye absorbance in accord with the manufacturer's manual. […]

[2] = system: HGF/c-MET signaling; test: Western blot, HGF-stimulated signaling in KMS11, KMS21 and KMS34 cells; assay type: cell-based, human; conditions: 20 μM GTN057
Description: (§1) MM cells (4 × 10^5 cells/mL) were incubated with 0–20 μM GTN057 for 12 h. The cells were then co‐cultured with 0–50 ng/mL of hepatocyte growth factor (HGF) (PeproTech, London) or 0–20 ng/mL of fibroblast growth factor (FGF)‐2 (PeproTech) with 1 unit/mL of heparin in RPMI containing 4% dialyzed FCS (Gibco) for the KMS11 and KMS34 cells and 10% dialyzed FCS for the KMS21 cells for 15 min at RT (room temperature). A549 cells were co‐cultured with 0–50 ng/mL of epidermal growth factor (EGF) (PeproTech) in Eagle's MEM containing 4% dialyzed FCS for 15 min at RT. […]
(§2) The protein concentrations were measured using a BCA Protein Assay Kit (Thermo Fisher Scientific). […]
(§3) Antibodies against phospho‐STAT3 (Tyr705), phospho‐Akt (Ser473), p44/42 MAPK (Erk 1/2), phosphor‐p44/42 MAPK (Thr202/Tyr 204), and phospho‐c‐Met (Tyr1234/1235) (all from Cell Signaling Technology, Danvers, MA) or STAT3, Akt, c‐Met, and β‐actin (all from Santa Cruz Biotechnology, Santa Cruz, CA) or phospho‐c‐Met (Tyr1230/1234/1235) (Biosource, Camarillo, CA for KMS34 cells in Figure 3A) were each used at 1:1000 dilution. […] The Western blotting signals were detected by enhanced ECL chemiluminescence (Amersham). The signal intensity of each band was quantified densitometrically with ImageJ software (ver. 1.48, U.S. National Institutes of Health).

[3] = system: KMS11 xenografted tumor; test: Histopathologic and immunohistochemical examination of xenografts; assay type: in vivo, ICR/SCID mice; conditions: GTN057-treated KMS11 xenografts, immunohistochemistry
Excerpt: Xenografts were excised and fixed with 10% formalin and embedded in paraffin. Five‐μm sliced sections were used for hematoxylin and eosin (H&E) staining. For the immunohistochemical evaluation, we used anti‐human cleaved poly(ADP‐ribose), polymerase (PARP), polyclonal antibody (pAb) (Cell Signaling Technology Japan, Tokyo), anti‐human Ki‐67 monoclonal antibody (mAb) (clone MIB‐1) (Dako Japan, Tokyo), anti‐human cleaved caspase‐3 (Asp175), pAb (Cell Signaling Technology Japan), and anti‐human Factor VIII mAb (Atlas Antibodies).

[4] = system: ERK1/2; test: Western blot, dose-dependent inhibition of ERK1/2 phosphorylation in KMS34 cells; assay type: cell-based; conditions: Homo sapiens, KMS-34, Western blot densitometry, read-out: 50% inhibition of the phosphorylation of ERK1/2
Description: as §1, §2, §3

COc1c(OC(C)=O)c2c(c(O)c1C(C)C)C(=O)CC1C(C)(C)CCC[C@]1(O)C2 (stereo partly shown) [GTN057]
Effect of combination treatment [1]: additive anti‐myeloma effect
Phosphorylation of ERK1/2, STAT3 and Akt1 ([2]; KMS11, KMS21, KMS34 cells, 50 ng/mL HGF): diminished
Phosphorylation at y1234 y1235 of c-MET ([2]; co-culture with HGF): abolished
Number of Factor VIII-positive vessel cells [3]: decreased
Numbers of cleaved-caspase-3-positive and PARP-positive cells [3]: significantly increased
Staining for cell proliferation marker MIB-1/Ki67 [3]: weakened
IC50 [4]: 21.3 µM
